A short description of series [1]: collision cross section (TWIMS, N2) of ion [M-H]-; higher = larger gas-phase ion cross section. Conditions: ionization: ESI negative; LC: HILIC, pH 9.0 ammonium acetate. As for the experimental part:
(§1)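 Reference standards (20-100 uM) were separated by HILIC UPLC (BEH HILIC, 45 °C): acidic pH 3.0 ammonium formate/formic acid for ESI+ and basic pH 9.0 ammonium acetate/ammonia for ESI-. They were analysed on a Synapt G2-Si traveling-wave IMS-QTOF with nitrogen drift gas (WH 30 V; WV 800 m/s in ESI+ and 1000 m/s in ESI-).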

Series [2] can be described thus: collision cross section (TWIMS, N2) of ion [M+H]+; higher = larger gas-phase ion cross section. Conditions: ionization: ESI positive; LC: HILIC, pH 3.0 ammonium formate. Here is the method:
as §1

A short description of series [3]: retention time on BEH HILIC column (20 min gradient, 0.4 mL/min); higher = later elution. The conditions noted are these: LC: HILIC. Here is the method: as §1
The mark [4] stands for this setting: ionization: ESI negative, pH 9.0 ammonium acetate.
Where [5] appears, read: ionization: ESI positive, pH 3.0 ammonium formate.

As for `N=C(N)NCCC[C@H](N)C(=O)O` [L-arginine], the collision cross section is recorded as 136.62 Å² in series [1] and 136.63 Å² in series [2]. For the same compound, the “retention time on BEH HILIC column” value was 11.1 min in series [3] (setting [4]) and 10.8 min in series [3] (setting [5]).

Turning to `CCCCCCCCC(=O)OC` [Methyl nonanoate], the collision cross section in series [1] is recorded as 144.8 Å²; in series [2] it was 148.93 Å². Also, the “retention time on BEH HILIC column” value in series [3] (setting [4]) and in series [3] (setting [5]) was 1.03 min throughout.

On to `N[C@@H](CCC(=O)N[C@@H](CS)C(=O)NCC(=O)O)C(=O)O` [Glutathione], for which the collision cross section was 166.5 Å² in series [1] and 166.01 Å² in series [2]. The “retention time on BEH HILIC column” value in series [3] (setting [4]) was determined as 9.37 min; in series [3] (setting [5]), 9.46 min.

Turning to `Cc1cc2nc3c(=O)[nH]c(=O)nc-3n(C[C@H](O)[C@H](O)[C@H](O)CO)c2cc1C` [Riboflavin], the figures for the collision cross section in series [1] and in series [2] were 184.43 Å² and 182.66 Å², respectively. Also, the figures for the “retention time on BEH HILIC column” value in series [3] (setting [4]) and in series [3] (setting [5]) were 3.11 min and 5.57 min, respectively.

For the compound `N[C@@H](Cc1c[nH]c2ccccc12)C(=O)O` [L-tryptophan], the collision cross section in series [1] is 148.33 Å²; in series [2], 147.76 Å². Besides, the “retention time on BEH HILIC column” value came out at 5.86 min in series [3] (setting [4]) and 5.77 min in series [3] (setting [5]).

Turning to `O=c1ccn([C@@H]2O[C@H](CO)[C@@H](O)[C@H]2O)c(=O)[nH]1` [Uridine], the collision cross section came out at 153.03 Å² in series [1] and 146.3 Å² in series [2]. For the same compound, the “retention time on BEH HILIC column” value in series [3] (setting [4]) and in series [3] (setting [5]) was 1.47 min in each case.

As for `N[C@@H](CCC(=O)N[C@@H](CSSC[C@H](NC(=O)CC[C@H](N)C(=O)O)C(=O)NCC(=O)O)C(=O)NCC(=O)O)C(=O)O` [Oxidized glutathione], the collision cross section in series [1] was found to be 216.04 Å²; in series [2] it was 226.92 Å². Besides, the “retention time on BEH HILIC column” value in series [3] (setting [4]) was found to be 12.5 min; in series [3] (setting [5]) it was 12.6 min.

As for `Nc1ncnc2c1ncn2[C@@H]1O[C@H](COP(=O)(O)O)[C@@H](O)[C@H]1O` [AMP], the collision cross section came to 175.53 Å² in series [1] and 167.89 Å² in series [2]. Also, the “retention time on BEH HILIC column” value turned out to be 12 min in series [3] (setting [4]) and 9.15 min in series [3] (setting [5]).

On to `Nc1ncnc2c1ncn2[C@@H]1O[C@@H]2COP(=O)(O)O[C@H]2[C@H]1O` [cAMP], for which the values for the collision cross section in series [1] and in series [2] were 171.56 Å² and 174.12 Å², respectively. The “retention time on BEH HILIC column” value in series [3] (setting [4]) was determined as 6.8 min; in series [3] (setting [5]) it was 6.85 min.

As for `CCC(C)CCC(=O)O` (configuration not stated) [4-methylhexanoic acid], the collision cross section came out at 134.11 Å² in series [1] and 137.57 Å² in series [2]. Moreover, the “retention time on BEH HILIC column” value turned out to be 0.88 min in series [3] (setting [4]) and 0.99 min in series [3] (setting [5]).

`NCCCC[C@H](N)C(=O)O` [L-lysine]: the collision cross section in series [1] was determined as 135.63 Å²; in series [2] it was 131.69 Å². Also, the “retention time on BEH HILIC column” value is 11.6 min in series [3] (setting [4]) and 11.3 min in series [3] (setting [5]).

As for `N[C@@H](CCSC[C@H](N)C(=O)O)C(=O)O` [L-cystathionine], the collision cross section stood at 142.48 Å² in series [1] and 144 Å² in series [2]. In addition, the figures for the “retention time on BEH HILIC column” value in series [3] (setting [4]) and in series [3] (setting [5]) were 11.2 min and 11.3 min, respectively.

For `NCCS(=O)(=O)O` [Taurine], the collision cross section turned out to be 119.39 Å² in series [1] and 126.38 Å² in series [2]. Moreover, the “retention time on BEH HILIC column” value in series [3] (setting [4]) came to 6.14 min; in series [3] (setting [5]), 6 min.

On to `CC(=O)SCCNC(=O)CCNC(=O)[C@H](O)C(C)(C)COP(=O)(O)OP(=O)(O)OC[C@H]1O[C@@H](n2cnc3c(N)ncnc32)[C@H](O)[C@@H]1OP(=O)(O)O` [Acetyl-CoA], for which the results for the collision cross section in series [1] and in series [2] were 256.25 Å² and 248.16 Å², respectively. In addition, the “retention time on BEH HILIC column” value in series [3] (setting [4]) is 11.8 min; in series [3] (setting [5]), 12 min.

Take `Oc1ncnc2nc[nH]c12` [Hypoxanthine]: the collision cross section is listed as 121.62 Å² in series [1] and 125.05 Å² in series [2]. For the same compound, the “retention time on BEH HILIC column” value in series [3] (setting [4]) worked out at 2.31 min; in series [3] (setting [5]), 2.28 min.

With `Nc1ccccc1C(=O)O` [2-aminobenzoic acid], the collision cross section in series [1] came to 126.13 Å²; in series [2] it was 124.05 Å². Besides, the “retention time on BEH HILIC column” value in series [3] (setting [4]) came out at 0.97 min; in series [3] (setting [5]), 0.82 min.

Take `CC(C)(COP(=O)(O)OP(=O)(O)OC[C@H]1O[C@@H](n2cnc3c(N)ncnc32)[C@H](O)[C@@H]1OP(=O)(O)O)[C@@H](O)C(=O)NCCC(=O)NCCSC(=O)CCC(=O)O` [Succinyl-CoA]: the collision cross section in series [1] was 262.11 Å²; in series [2] it was 260.23 Å². In addition, the “retention time on BEH HILIC column” value in series [3] (setting [4]) is 12.3 min; in series [3] (setting [5]) it was 13.5 min.

`CC/C=C\C/C=C\C/C=C\C/C=C\C/C=C\CCCC(=O)O` [Eicosapentaenoic acid]: the collision cross section in series [1] is on record as 190.11 Å²; in series [2], 177.23 Å². The “retention time on BEH HILIC column” value came out at 0.72 min in series [3] (setting [4]) and 0.75 min in series [3] (setting [5]).

In the case of `Cc1cc2nc3c(=O)[nH]c(=O)nc-3n(C[C@H](O)[C@H](O)[C@H](O)COP(=O)(O)OP(=O)(O)OC[C@H]3O[C@@H](n4cnc5c(N)ncnc54)[C@H](O)[C@@H]3O)c2cc1C` [FAD], the collision cross section came out at 243.71 Å² in series [1] and 250.07 Å² in series [2]. Moreover, the “retention time on BEH HILIC column” value in series [3] (setting [4]) stood at 10.6 min; in series [3] (setting [5]), 10.5 min.

Consider `O=C(O)c1cc(O)c2cccc(O)c2n1` [Xanthurenic acid], for which the collision cross section in series [1] turned out to be 136.52 Å²; in series [2], 136.81 Å². In addition, the figures for the “retention time on BEH HILIC column” value in series [3] (setting [4]) and in series [3] (setting [5]) were 4.65 min and 4.47 min, respectively.

`Nc1c(C(=O)O)c2nc3c(C(=O)O)cccc3oc-2cc1=O` [Cinnavalininate]: the collision cross section came to 156.31 Å² in series [1] and 156.61 Å² in series [2]. The figures for the “retention time on BEH HILIC column” value in series [3] (setting [4]) and in series [3] (setting [5]) were 2.92 min and 2.66 min, respectively.

Turning to `O=c1[nH]c(=O)c2[nH]c(=O)[nH]c2[nH]1` [Uric acid], the figures for the collision cross section in series [1] and in series [2] were 125.59 Å² and 133.36 Å², respectively. Further, the entries for the “retention time on BEH HILIC column” value in series [3] (setting [4]) and in series [3] (setting [5]) were 5.34 min and 3.02 min, respectively.

For `O=C(O)CCCC[C@@H]1SC[C@@H]2NC(=O)N[C@@H]21` [Biotin], the collision cross section was 153.03 Å² in series [1] and 148.62 Å² in series [2]. Moreover, the entries for the “retention time on BEH HILIC column” value in series [3] (setting [4]) and in series [3] (setting [5]) were 1.78 min and 1.88 min, respectively.

Consider `CCCCC/C=C\C/C=C\C/C=C\C/C=C\CCCC(=O)O` [Arachidonic acid], for which the collision cross section in series [1] came out at 186.98 Å²; in series [2] it was 178.98 Å². Further, the “retention time on BEH HILIC column” value came to 0.72 min in series [3] (setting [4]) and 0.77 min in series [3] (setting [5]).

Turning to `CCCCCCC(=O)OC` [Methyl heptanoate], the figures for the collision cross section in series [1] and in series [2] were 137.2 Å² and 137.86 Å², respectively. The “retention time on BEH HILIC column” value in series [3] (setting [4]) came to 1.13 min; in series [3] (setting [5]) it was 0.84 min.

For the compound `N[C@@H](Cc1ccccc1)C(=O)O` [L-phenylalanine], the figures for the collision cross section in series [1] and in series [2] were 138.51 Å² and 137.14 Å², respectively. Moreover, the “retention time on BEH HILIC column” value was determined as 6.02 min in series [3] (setting [4]) and 5.92 min in series [3] (setting [5]).

Take `CC(C)C[C@H](N)C(=O)O` [L-leucine]: the collision cross section was determined as 131.1 Å² in series [1] and 131.44 Å² in series [2]. Moreover, the “retention time on BEH HILIC column” value in series [3] (setting [4]) came to 6.46 min; in series [3] (setting [5]) it was 6.26 min.

For the compound `Nc1nc(=O)c2[nH]cnc2[nH]1` [Guanine], the collision cross section was 125.12 Å² in series [1] and 128.49 Å² in series [2]. For the same compound, the “retention time on BEH HILIC column” value in series [3] (setting [4]) was 3.65 min; in series [3] (setting [5]), 3.62 min.

Consider `NCCC[C@H](N)C(=O)O` [Ornithine], for which the collision cross section is 129.53 Å² in series [1] and 129.31 Å² in series [2]. In addition, the “retention time on BEH HILIC column” value came to 11.2 min in series [3] (setting [4]) and 11.1 min in series [3] (setting [5]).

For `CC[C@H](C)[C@H](N)C(=O)O` [L-isoleucine], the collision cross section in series [1] stood at 129.46 Å²; in series [2], 133.13 Å². In addition, the “retention time on BEH HILIC column” value is 6.68 min in series [3] (setting [4]) and 6.47 min in series [3] (setting [5]).

For the compound `O=C(O)Cc1c[nH]c2ccccc12` [Indoleacetic acid], the collision cross section is 141.98 Å² in series [1] and 137.05 Å² in series [2]. Also, the “retention time on BEH HILIC column” value in series [3] (setting [4]) is 0.88 min; in series [3] (setting [5]), 0.9 min.

On to `O=C1CC[C@@H](C(=O)O)N1` [Pyroglutamic acid], for which the collision cross section in series [1] came to 123.74 Å²; in series [2], 126.02 Å². In addition, the figures for the “retention time on BEH HILIC column” value in series [3] (setting [4]) and in series [3] (setting [5]) were 5.48 min and 6.77 min, respectively.

`C=C1CC[C@H](O)C/C1=C/C=C1\CCC[C@]2(C)[C@@H]([C@H](C)CCCC(C)C)CC[C@@H]12` [Vitamin D3]: the collision cross section stood at 201.16 Å² in series [1] and 206.18 Å² in series [2]. Besides, the “retention time on BEH HILIC column” value is 17.5 min in series [3] (setting [4]) and 0.73 min in series [3] (setting [5]).

(Values after the supplement of paper PMC11127212.)
